According to patent publication US11124496B2, “Imidazolidine compounds” (Eli Lilly and Company, priority 2017, dated 2021):

Key:
[1] = target: human ASK1 (Homo sapiens (Human), UniProt Q99683); assay: ASK1 autophosphorylation (Thr838) assay in HEK293 cells overexpressing human ASK1; format: cell-based; conditions: for IC50: H2O2-stimulated (1 mM, 10 minutes) ASK1 autophosphorylation at Thr838, HEK293 cells, Mean±Standard Deviation, read-out: HEK pASK1 IC50; for Efficacy (%): HEK pASK1 assay, standard ASK1 inhibitor = 100% inhibition, DMSO vehicle = 0%
[2] = target: recombinant human ASK1 (hASK1) catalytic domain (Homo sapiens (Human), UniProt Q99683); assay: ASK1 enzymatic assay (ADP-Glo Kinase Assay); format: biochemical; conditions: for IC50: hASK1 0.25 nM, MKK6 300 nM, ATP 100 uM, Mean±Standard Deviation; for Efficacy (%): hASK1 enzymatic assay, standard ASK1 inhibitor = 100% inhibition, DMSO vehicle = 0%
Excerpt: ASK1 Inhibitor Effect Determined by ASK1 Enzymatic Assay
The purpose of this assay is to determine the effect of ASK1 inhibitors on the production of ADP by ASK1. The recombinant human ASK1 (hASK1) catalytic domain tagged with Glutathione S-transferase is used, and histidine-tagged full-length human MAP kinase kinase 6 (MKK6) and ATP are the substrate and cofactor, respectively.
The assay is done using an ADP-Glo™ Kinase Assay Kit (Promega, Catalog #V9102) according to the manufacturer's protocol with the following modifications. Briefly, hASK1 (0.25 nM) and MKK6 (300 nM) in a buffer (10 mM MOPS pH 7.0; 10 mM Mg-Acetate; 1 mM DTT; 0.025% NP-40; 0.05% BSA; 1.5% glycerol) are incubated with ASK1 inhibitors at varying concentrations ranging from 10.00 uM to 0.17 nM for 15 minutes, followed by incubation with ATP (100 uM) for 30 minutes at room temperature. ADP-Glo™ Reagent is added to terminate the kinase reaction and deplete the remaining ATP. The Kinase Detection Reagent is then added to convert ADP to ATP. The newly synthesized ATP is measured using a luciferase/luciferin reaction, and the luminescence determined by Envision (PerkinElmer). The luminescence intensities are analyzed by GeneData, and fit to a 4 parameter dose response-inhibitor logistics curve to determine IC50 values, using the effects of 5-(4-cyclopropyl-1H-imidazol-1-yl)-2-fluoro-4-methyl-N-{6-[4-(propan-2-yl)-4H-1,2,4-triazol-3-yl]pyridin-2-yl}benzamide as a standard and DMSO vehicle for 100% and 0% inhibition, respectively.

recombinant human ASK1 (hASK1) catalytic domain, sequence (Q99683 680-938): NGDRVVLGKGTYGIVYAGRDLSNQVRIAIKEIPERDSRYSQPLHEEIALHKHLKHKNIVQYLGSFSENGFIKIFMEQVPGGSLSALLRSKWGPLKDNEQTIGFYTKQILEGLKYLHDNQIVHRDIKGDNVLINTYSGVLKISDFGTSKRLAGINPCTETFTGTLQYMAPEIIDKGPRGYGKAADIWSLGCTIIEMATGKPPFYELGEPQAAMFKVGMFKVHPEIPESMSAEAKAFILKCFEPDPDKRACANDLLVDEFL
human ASK1, sequence (Q99683 whole entry, the tested form may be a part): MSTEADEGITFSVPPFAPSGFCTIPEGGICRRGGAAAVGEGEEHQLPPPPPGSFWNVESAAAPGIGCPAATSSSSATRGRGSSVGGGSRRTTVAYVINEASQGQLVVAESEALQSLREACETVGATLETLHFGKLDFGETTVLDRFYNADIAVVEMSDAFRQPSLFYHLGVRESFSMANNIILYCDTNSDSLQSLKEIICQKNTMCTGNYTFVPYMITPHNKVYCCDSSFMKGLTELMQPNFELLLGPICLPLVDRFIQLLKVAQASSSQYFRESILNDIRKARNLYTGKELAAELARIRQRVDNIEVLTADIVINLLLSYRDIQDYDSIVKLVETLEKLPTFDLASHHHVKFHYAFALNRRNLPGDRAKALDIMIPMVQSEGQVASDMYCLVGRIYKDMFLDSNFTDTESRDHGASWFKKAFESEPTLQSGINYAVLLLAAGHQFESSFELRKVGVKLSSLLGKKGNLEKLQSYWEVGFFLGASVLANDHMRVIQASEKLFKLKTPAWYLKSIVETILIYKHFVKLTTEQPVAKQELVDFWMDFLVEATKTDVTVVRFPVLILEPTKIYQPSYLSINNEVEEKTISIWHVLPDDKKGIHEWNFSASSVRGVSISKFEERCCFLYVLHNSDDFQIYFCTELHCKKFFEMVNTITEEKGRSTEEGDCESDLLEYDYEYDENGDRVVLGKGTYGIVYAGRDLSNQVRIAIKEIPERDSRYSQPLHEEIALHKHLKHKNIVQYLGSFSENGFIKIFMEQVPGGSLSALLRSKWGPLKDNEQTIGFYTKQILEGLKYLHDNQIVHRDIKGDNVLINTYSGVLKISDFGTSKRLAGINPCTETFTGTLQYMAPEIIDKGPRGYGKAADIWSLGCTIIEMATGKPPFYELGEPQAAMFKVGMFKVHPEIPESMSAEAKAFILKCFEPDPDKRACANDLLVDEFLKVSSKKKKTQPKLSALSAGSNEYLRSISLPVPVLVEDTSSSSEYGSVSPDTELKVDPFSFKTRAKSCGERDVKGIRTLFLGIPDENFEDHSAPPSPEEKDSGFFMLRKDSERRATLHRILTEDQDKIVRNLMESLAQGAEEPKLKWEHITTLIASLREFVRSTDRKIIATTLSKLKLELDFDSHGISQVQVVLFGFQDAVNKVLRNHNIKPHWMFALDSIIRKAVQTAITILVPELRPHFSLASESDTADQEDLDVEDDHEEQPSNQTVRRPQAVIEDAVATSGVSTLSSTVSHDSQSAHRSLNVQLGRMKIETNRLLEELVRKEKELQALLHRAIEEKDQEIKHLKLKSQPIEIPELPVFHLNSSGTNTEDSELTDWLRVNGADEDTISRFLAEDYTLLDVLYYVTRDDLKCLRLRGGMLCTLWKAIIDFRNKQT

Row | IC50 [1] [µM] | Efficacy (%) [1] [%] | IC50 [2] [µM] | Efficacy (%) [2] [%] | SMILES
1 | 0.52 | 100 | 0.0166 ± 0.00316 | 100 | Cc1ccc(CCN2CCN(c3cccc(-c4nncn4C(C)C)n3)C2=O)cn1 [Example 7, 1-[6-(4-Isopropyl-1,2,4-triazol-3-yl)-2-pyridyl]-3-[2-(6-methyl-3-pyridyl)ethyl]imidazolidin-2-one]
2 |  |  | 0.0883 ± 0.0218 | 100 | Cc1ncc(CCN2CCN(c3cccc(-c4nncn4C(C)C)n3)C2=O)cn1 [Example 6, 1-[6-(4-Isopropyl-1,2,4-triazol-3-yl)-2-pyridyl]-3-[2-(2-methylpyrimidin-5-yl)ethyl]imidazolidin-2-one]
3 | 3.77 | 100 | 0.0644 ± 0.0585 | 100 | CC(C)n1cnnc1-c1cccc(N2CCNC2=O)n1 [Example 5, 1-(6-(4-Isopropyl-4H-1,2,4-triazol-3-yl)pyridin-2-yl)imidazolidin-2-one]
4 | 0.735 | 107 | 0.0137 ± 0.00657 | 100 | CC(C)n1cnnc1-c1cccc(N2CCN(CCc3cnc(C4CC4)nc3)C2=O)n1 [Example 4, 1-[2-(2-Cyclopropylpyrimidin-5-yl)ethyl]-3-[6-(4-isopropyl-1,2,4-triazol-3-yl)-2-pyridyl]imidazolidin-2-one]

More lines, now with the values behind:

Row | SMILES | IC50 [1] [µM] | Efficacy (%) [1] [%] | IC50 [2] [µM] | Efficacy (%) [2] [%]
5 | CC(C)n1cnnc1-c1cccc(N2CCN(CCc3cccnc3)C2=O)n1 [Example 1, 1-[6-(4-Isopropyl-1,2,4-triazol-3-yl)-2-pyridyl]-3-[2-(3-pyridyl)ethyl]imidazolidin-2-one] | 1.4 | 80.5 | 0.036 ± 0.00625 | 100
6 | CC(C)n1cnnc1-c1cccc(N2CCN(CCn3cnc(C4CC4)c3)C2=O)n1 [Example 3, 1-[2-(4-Cyclopropylimidazol-1-yl)ethyl]-3-[6-(4-isopropyl-1,2,4-triazol-3-yl)-2-pyridyl]imidazolidin-2-one] | 1.13 ± 0.3 | 101 | 0.0108 ± 0.00201 | 100
7 | CC(C)n1cnnc1-c1cccc(N2CCN([C@H](C)Cn3cnc(C4CC4)c3)C2=O)n1 [Example 2, 1-[(1R)-2-(4-Cyclopropylimidazol-1-yl)-1-methyl-ethyl]-3-[6-(4-isopropyl-1,2,4-triazol-3-yl)-2-pyridyl]imidazolidin-2-one] | 0.886 ± 0.0654 | 96.0 | 0.014 ± 0.00261 | 100
